From ChEMBL document CHEMBL3431459, “Roche carnitine palmitoyltransferase modulator screening data (supplementary data associated with the publication CHEMBL2216752)”
Values after ≈ are worked out from the molar mass of the structure shown.

What was measured:
[1] = SUPPLEMENTARY: Lipophilicity (log D) Determination by high-throughput shake-flask; type: physicochemical; conditions: octanol/water
[2] = molecular target: T1, Carnitine O-palmitoyltransferase 1, muscle isoform (Homo sapiens, UniProt Q92523); assay: SUPPLEMENTARY: Inhibition of Carnitine palmitoyltransferase 1, muscle isoform; design: species or system Muscle tissue
T1 sequence (Q92523 whole entry): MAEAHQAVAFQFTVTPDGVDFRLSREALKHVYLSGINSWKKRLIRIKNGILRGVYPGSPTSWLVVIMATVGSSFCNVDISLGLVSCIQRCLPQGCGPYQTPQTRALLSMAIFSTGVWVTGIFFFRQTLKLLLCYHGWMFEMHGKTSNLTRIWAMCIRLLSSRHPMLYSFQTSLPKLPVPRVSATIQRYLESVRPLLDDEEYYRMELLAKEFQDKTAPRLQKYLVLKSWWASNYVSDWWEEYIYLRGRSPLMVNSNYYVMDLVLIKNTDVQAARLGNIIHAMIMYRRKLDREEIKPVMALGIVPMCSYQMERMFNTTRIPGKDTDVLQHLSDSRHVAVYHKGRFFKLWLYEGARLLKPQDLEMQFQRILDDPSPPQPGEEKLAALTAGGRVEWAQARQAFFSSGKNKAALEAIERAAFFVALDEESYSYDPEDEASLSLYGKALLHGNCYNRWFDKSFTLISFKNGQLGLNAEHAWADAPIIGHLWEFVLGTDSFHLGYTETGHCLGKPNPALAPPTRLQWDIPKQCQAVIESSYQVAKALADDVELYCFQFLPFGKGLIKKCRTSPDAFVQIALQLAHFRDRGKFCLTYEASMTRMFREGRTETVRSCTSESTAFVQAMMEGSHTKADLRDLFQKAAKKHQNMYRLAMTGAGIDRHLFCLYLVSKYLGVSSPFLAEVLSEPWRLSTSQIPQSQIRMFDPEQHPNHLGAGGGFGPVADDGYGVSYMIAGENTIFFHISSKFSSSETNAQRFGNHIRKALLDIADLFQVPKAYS

[3] = molecular target: T2, Carnitine O-palmitoyltransferase 2, mitochondrial (Homo sapiens, UniProt P23786); assay: (§1) SUPPLEMENTARY: Inhibition of Carnitine palmitoyltransferase 2
T2 sequence (P23786 whole entry): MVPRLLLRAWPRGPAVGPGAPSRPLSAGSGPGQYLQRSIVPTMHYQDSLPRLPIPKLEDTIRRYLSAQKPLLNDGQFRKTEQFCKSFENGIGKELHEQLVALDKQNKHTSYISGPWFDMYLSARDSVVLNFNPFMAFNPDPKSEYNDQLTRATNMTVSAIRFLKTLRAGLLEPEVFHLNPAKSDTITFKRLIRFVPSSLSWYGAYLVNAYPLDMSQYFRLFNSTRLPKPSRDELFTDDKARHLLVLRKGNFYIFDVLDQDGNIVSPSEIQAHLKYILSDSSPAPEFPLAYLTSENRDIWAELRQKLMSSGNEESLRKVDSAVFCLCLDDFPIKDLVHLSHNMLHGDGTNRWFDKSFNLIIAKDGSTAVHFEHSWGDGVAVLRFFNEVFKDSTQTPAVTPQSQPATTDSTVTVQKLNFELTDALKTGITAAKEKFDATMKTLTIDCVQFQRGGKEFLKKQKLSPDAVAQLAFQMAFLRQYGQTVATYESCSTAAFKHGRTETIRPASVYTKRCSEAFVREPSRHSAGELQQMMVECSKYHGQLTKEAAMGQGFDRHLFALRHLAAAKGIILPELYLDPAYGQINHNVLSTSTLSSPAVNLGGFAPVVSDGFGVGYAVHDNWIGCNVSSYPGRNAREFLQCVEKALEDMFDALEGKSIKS

[4] = molecular target: T3, Carnitine O-palmitoyltransferase 2, mitochondrial (Rattus norvegicus, UniProt P18886); assay: as §1
T3 sequence (P18886 whole entry): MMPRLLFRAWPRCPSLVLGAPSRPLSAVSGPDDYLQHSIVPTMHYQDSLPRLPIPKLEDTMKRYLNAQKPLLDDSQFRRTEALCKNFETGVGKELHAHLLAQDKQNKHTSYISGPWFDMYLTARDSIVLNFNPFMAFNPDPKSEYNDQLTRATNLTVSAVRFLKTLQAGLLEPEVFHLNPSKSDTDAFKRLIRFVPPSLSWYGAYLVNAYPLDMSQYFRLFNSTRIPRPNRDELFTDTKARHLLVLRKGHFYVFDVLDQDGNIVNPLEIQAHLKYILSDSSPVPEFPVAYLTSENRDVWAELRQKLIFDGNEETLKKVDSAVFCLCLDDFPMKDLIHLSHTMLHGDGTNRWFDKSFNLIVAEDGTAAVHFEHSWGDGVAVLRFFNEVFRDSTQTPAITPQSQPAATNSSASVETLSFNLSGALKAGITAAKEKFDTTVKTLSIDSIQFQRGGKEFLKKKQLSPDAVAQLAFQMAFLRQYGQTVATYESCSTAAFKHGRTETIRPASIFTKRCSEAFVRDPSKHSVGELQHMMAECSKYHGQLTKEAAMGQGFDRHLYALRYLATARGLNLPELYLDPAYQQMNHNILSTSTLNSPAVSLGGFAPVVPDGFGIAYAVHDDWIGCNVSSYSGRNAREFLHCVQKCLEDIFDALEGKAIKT

[5] = SUPPLEMENTARY: PAMPA permeability assay; type: physicochemical; conditions: read-out: Permeability
[6] = SUPPLEMENTARY: Lyophilisation Solubility Assay (LYSA); type: physicochemical; conditions: read-out: Kinetic_solubility
[7] = molecular target: T4, Carnitine O-palmitoyltransferase 1, liver isoform (Homo sapiens, UniProt P50416); assay: (§2) SUPPLEMENTARY: Inhibition of Carnitine palmitoyltransferase 1, liver isoform
T4 sequence (P50416 whole entry): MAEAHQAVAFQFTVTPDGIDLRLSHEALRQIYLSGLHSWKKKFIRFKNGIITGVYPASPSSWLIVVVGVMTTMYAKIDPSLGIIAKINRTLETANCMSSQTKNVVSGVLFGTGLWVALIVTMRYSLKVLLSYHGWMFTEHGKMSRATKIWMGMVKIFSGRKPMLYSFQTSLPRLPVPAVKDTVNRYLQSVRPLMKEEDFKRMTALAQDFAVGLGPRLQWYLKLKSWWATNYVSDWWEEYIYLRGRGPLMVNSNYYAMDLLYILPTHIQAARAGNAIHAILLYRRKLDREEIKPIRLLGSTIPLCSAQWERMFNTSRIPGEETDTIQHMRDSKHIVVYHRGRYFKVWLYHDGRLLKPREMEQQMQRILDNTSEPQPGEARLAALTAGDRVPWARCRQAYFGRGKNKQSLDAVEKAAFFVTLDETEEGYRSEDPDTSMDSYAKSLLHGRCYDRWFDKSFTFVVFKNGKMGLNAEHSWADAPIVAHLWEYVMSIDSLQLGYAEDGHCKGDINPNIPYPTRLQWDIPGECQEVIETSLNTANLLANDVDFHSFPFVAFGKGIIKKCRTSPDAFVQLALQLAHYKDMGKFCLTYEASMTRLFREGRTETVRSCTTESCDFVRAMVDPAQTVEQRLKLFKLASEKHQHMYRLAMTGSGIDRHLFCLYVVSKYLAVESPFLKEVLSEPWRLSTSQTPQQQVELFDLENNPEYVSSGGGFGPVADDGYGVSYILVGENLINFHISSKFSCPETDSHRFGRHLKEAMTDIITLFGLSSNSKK

[8] = molecular target: T5, Carnitine O-palmitoyltransferase 1, liver isoform (Rattus norvegicus, UniProt P32198); assay: as §2
T5 sequence (P32198 whole entry): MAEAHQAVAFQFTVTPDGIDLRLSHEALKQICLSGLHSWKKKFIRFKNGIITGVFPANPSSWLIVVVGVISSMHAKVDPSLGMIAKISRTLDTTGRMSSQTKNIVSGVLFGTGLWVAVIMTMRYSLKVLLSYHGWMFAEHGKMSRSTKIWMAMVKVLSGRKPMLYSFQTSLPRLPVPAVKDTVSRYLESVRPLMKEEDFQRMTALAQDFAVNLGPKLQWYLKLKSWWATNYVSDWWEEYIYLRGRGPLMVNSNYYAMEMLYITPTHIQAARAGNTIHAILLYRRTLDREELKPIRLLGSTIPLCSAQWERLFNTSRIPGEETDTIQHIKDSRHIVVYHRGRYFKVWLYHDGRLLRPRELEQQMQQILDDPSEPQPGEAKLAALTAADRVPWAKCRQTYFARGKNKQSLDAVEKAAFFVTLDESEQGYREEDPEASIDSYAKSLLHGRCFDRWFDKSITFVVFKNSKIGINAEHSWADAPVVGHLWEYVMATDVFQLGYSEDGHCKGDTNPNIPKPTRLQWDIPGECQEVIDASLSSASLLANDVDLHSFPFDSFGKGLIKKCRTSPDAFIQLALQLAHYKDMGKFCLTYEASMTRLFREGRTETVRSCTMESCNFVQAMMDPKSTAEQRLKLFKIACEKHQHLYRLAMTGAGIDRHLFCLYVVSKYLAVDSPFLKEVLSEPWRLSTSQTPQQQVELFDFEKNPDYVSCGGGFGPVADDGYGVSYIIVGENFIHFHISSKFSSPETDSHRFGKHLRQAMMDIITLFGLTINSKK

logD [1] | IC50 [2] [nM] | IC50 [3] [nM] | IC50 [4] [nM] | Papp [5] [×10⁻⁶ cm/s] | solubility kinetic [6] [µg/mL] | IC50 [7] [nM] | IC50 [8] [nM] | SMILES
3.15 | > 100000 | > 100000 | > 100000 | 4.34 | 30 (≈ 78.7 µM) | 119 | 507 | Cc1cc(-c2noc([C@H]3CCCCN3C(=O)COc3ccccc3)n2)n(C)n1
3.61 | > 100000 | > 100000 | > 100000 | 1.68 | < 1 | 79.1 | 252 | Cc1nn(C)c(-c2noc([C@H]3CCCCN3C(=O)COc3ccccc3)n2)c1Cl
2.34 | > 100000 | > 100000 | > 100000 | 3.94 | 141 (≈ 383 µM) | 137 | 611 | Cc1cc(-c2noc([C@H]3CCCCN3C(=O)COc3ccccc3)n2)no1
0.13 | 661 | > 100000 | > 100000 | 2.93 | 519 (≈ 1020 µM) | 53.3 | 18.4 | COc1ccc(Cl)cc1S(=O)(=O)N1COc2ccc(C(=O)Nc3nc(CC(=O)O)cs3)cc21
0.28 | 504 | > 100000 | > 100000 | 3.01 | 46 (≈ 91.5 µM) | 159 | 165 | COc1ccc(Cl)cc1S(=O)(=O)N1COc2ccc(C(=O)Nc3ccc(CC(=O)O)cc3)cc21
3.31 | > 100000 | 47600 | > 100000 | 0.965 | < 1 | 86.5 | 664 | O=C(COc1ccccc1)N1CCCC[C@@H]1c1noc(C2CCCCC2)n1
2.83 | > 100000 | 78400 | > 100000 | 3.5 | 50.5 (≈ 126 µM) | 191 | 222 | COC1CCC(c2nc([C@H]3CCCCN3C(=O)COc3ccccc3)no2)CC1 (stereo partly drawn)
2.9 | > 100000 | 57300 | 85500 | 2.24 | 11 (≈ 25.7 µM) | 148 | 479 | COC(=O)[C@H]1CCCC[C@@H]1c1nc([C@H]2CCCCN2C(=O)COc2ccccc2)no1
3.29 | 22700 | 6090 | 21700 | 0.49 | < 1 | 91.2 | 247 | CC1(C)NC(=O)N(c2ccc(Cl)c(-c3nc([C@H]4CCCCN4C(=O)COc4ccccc4)no3)c2)C1=O
2.61 | 63800 | 14400 | > 100000 | 3.59 | 51 (≈ 123 µM) | 117 | 129 | Nc1ncc(Cl)c(-c2nc([C@H]3CCCCN3C(=O)COc3ccccc3)no2)n1
3.08 | > 100000 | 33400 | > 100000 | 2.25 | 11 (≈ 25.6 µM) | 91.2 | 96.3 | O=C(COc1ccccc1)N1CCCC[C@@H]1c1noc(-c2ccc(-n3cncn3)cc2)n1
